According to patent US10975101B2, “Ultra-potent vinca alkaloids: added molecular complexity further disrupts the tublin dimer-dimer interface” (priority 2016, dated 2021):
pIC50: −log10 of the molar value. Several values for one entry are separate records, joined by “and”; a condition that tells them apart may be missing. Equal entries are not always repeated. Where two headings read alike, the source gives them in different places.

Assays:
[1] = tested on: vinblastine sensitive tumor cell lines (L1210 and HCT116); experiment: Cell growth inhibition, vinblastine-sensitive lines stated together; type: cell-based; details: cell growth inhibition; for increase in potency relative to vinblastine: vinblastine-sensitive lines
Protocol: (§1) Compounds were tested for their cell growth inhibition of L1210 (ATCC no. CCL-219, mouse lymphocytic leukemia) cells, HCT116 (ATCC no. CCL-247, human colorectal carcinoma) cells, and HCT116/VM46 (a vinblastine-resistant strain of HCT116) cells in culture. A population of cells (>1×10^6 cells/mL as determined with a hemocytometer) was diluted with an appropriate amount of Dulbecco's Modified Eagle Medium (DMEM, Gibco) containing 10% fetal bovine serum (FBS, Gibco) to a final concentration of 30000 cells/mL.
(§2) To each well of a 96-well plate (Corning Costar), 100 μL of the cell media solution was added with a multichannel pipet. The cultures were incubated at 37° C. in an atmosphere of 5% CO2 and 95% humidified air for 24 hours. The test compounds were added to the plate as follows: test substances were diluted in DMSO to a concentration of 1 mM and 10-fold serial dilutions were performed on a separate 96-well plate. Fresh culture medium (100 μL) was added to each well of cells to constitute 200 μL of medium per well followed by 2 μL of each test agent. Compounds were tested in duplicate (n=2-18 times) at six concentrations between 0-1000 nM or 0-10000 nM. Following addition, cultures were incubated for an additional 72 hours.
(§3) A phosphatase assay was used to establish the IC50 values as follows: the media in each cell was removed and 100 μL of phosphatase solution (100 mg phosphatase substrate in 30 mL of 0.1 M NaOAc, pH 5.5, 0.1% Triton X-100 buffer) was added to each well. The plates were incubated at 37° C. for either 5 minutes (L1210) or 15 minutes (HCT116 and HCT116/VM46). After the given incubation time, 50 μL of 0.1 N NaOH was added to each well and the absorption at 405 nm was determined using a 96 well plate reader. As the absorption is directly proportional to the number of living cells, the IC50 values were calculated and the reported values represent of the average of 4-36 determinations (SD±10%).

[2] = tested on: HCT116 (human colorectal carcinoma) cells; experiment: cells; type: cell-based; details: for pIC50: 72 hours incubation, phosphatase assay, read-out: IC50, HCT116; for IC50: listed beside % displacement in second TABLE 5, read-out: IC50 (nM, HCT116)
Protocol: as §1, §2, §3

[3] = tested on: HCT116/VM46 (a vinblastine-resistant strain of HCT116) cells; experiment: Cell growth inhibition assay, HCT116/VM46; type: cell-based, human; details: for pIC50: 72 hours incubation, phosphatase assay, Pgp-overexpressing resistant line; for increase in potency relative to vinblastine, HCT116/VM46: resistant line
Protocol: as §1, §2, §3

[4] = tested on: tubulin; experiment: BODIPY-vinblastine/tubulin competitive displacement assay; type: binding; details: tubulin 0.91 μM, BODIPY-VBL 1.8 μM, vinblastine analogue 18 μM, 37° C., average of 4 measurements ± SD
Protocol: As a consequence, the commercially available BODIPY-vinblastine fluorescent probe was used to assess tubulin binding and develop its use in a direct competitive binding assay.^15 [(a) Jiang et al., Cancer Res. 1998, 58, 5389; (b) Zhang et al., PloS one 2009, 4, e4881; (c) Rai et al., PloS one 2012, 7, e44311 and (d) Rashid et al., Biochemistry 2015, 54, 2149.]
In carrying out this study, tubulin (0.1 mg/mL, 0.91 μM) was incubated with BODIPY-vinblastine (BODIPY-VBL, 1.8 μM) and a vinblastine analogue (18 μM) at 37° C. in PEM buffer containing 850 μM GTP. The BODIPY-VBL fluorescence intensity (FI) (ex: 480 nm, em: 514 nm) of 100 μL aliquots from each incubation were measured in a fluorescence micro-plate reader at 37° C. Control studies were performed with BODIPY-VBL (control 1) in the absence of a competitive ligand (maximum FI enhancement due to tubulin binding) and (control 2) in the absence of tubulin (no FI enhancement due to tubulin binding). % BODIPY-VBL displacement was calculated by the formula (control 2 FI−experiment FI)/(control 2 FI−control 1 FI)×100. Reported values are the average 4 measurements±the standard deviation.
100 μL of 1 mg/mL tubulin in PEM and 25 μL of 72 μM BODIPY-VBL in DMSO were added to 850 μL of buffer (PEM+1 mM GTP). The solution was incubated at 37° C. for 15 minutes, after which 25 μL of 720 μM competitive ligand in DMSO was added. The solution was incubated for an additional 60 minutes at 37° C., after which 100 μL aliquots of each incubation were transferred into the wells of a 96-well plate (warmed to 37° C. in the plate reader). The BODIPY-vinblastine fluorescence intensity was measured (Ex 480 nm, Em 514 nm, Cutoff 495 nm) at 37° C. Control measurements were performed with BODIPY-VBL (control 1) in the absence of a competitive ligand (maximum FI enhancement due to tubulin binding) and (control 2) in the absence of tubulin (no FI enhancement due to tubulin binding). % BODIPY-VBL displacement was calculated by the formula (Control 2 FI−Experiment FI)/(Control 2 FI−Control 1 FI)×100. PEM: 80 mM PIPES-K pH 6.8, 2 mM MgSO4, 0.5 mM EGTA pH 6.8.

[5] = tested on: L1210 (mouse lymphocytic leukemia) cells; experiment: Cell growth inhibition assay, L1210; type: cell-based; details: 72 hours incubation, phosphatase assay
Protocol: as §1, §2, §3

[6] = tested on: L1210 (mouse lymphocytic leukemia) cells; details: previously reported in Barker et al., ACS Med. Chem. Lett. 2013, 4, 985; cited from earlier work
[7] = tested on: HCT116/VM46 (a vinblastine-resistant strain of HCT116) cells; details: previously reported (footnote a, Barker et al. 2013) or background art table, cited from earlier work
[8] = tested on: HCT116 (human colorectal carcinoma) cells; details: previously reported (footnote a, Barker et al. 2013) or background art table, cited from earlier work

Compound	more potent than the C20′ urea 9 [1] [fold]	increase in potency relative to vinblastine [1]	pIC50 [2]	IC50 [2] [nM]	pIC50 [3]	increase in potency relative to vinblastine, HCT116/VM46 [3] [fold]	% displacement of BODIPY-vinblastine bound to tubulin [4]	pIC50 [5]	pIC50 [6]	pIC50 [7]	pIC50 [8]	other results
CC[C@]1(NC(=O)N2Cc3ccc(NC(=O)c4cnccn4)cc3C2)C[C@H]2CN(CCc3c([nH]c4ccccc34)[C@@](C(=O)OC)(c3cc4c(cc3OC)N(C)[C@H]3[C@@](O)(C(=O)OC)[C@H](OC(C)=O)[C@]5(CC)C=CCN6CC[C@]43[C@@H]65)C2)C1 [Compound 60]	10	100 fold	10.12	0.07	9.08	700	100% and 104 ± 12%	10.23				
CC[C@]1(NC(=O)N2Cc3ccc(NC(=O)c4ccncn4)cc3C2)C[C@H]2CN(CCc3c([nH]c4ccccc34)[C@@](C(=O)OC)(c3cc4c(cc3OC)N(C)[C@H]3[C@@](O)(C(=O)OC)[C@H](OC(C)=O)[C@]5(CC)C=CCN6CC[C@]43[C@@H]65)C2)C1 [Compound 58]	10	100 fold	10.13	0.07	9.06	700	100% and 105 ± 5%	10.21				
CC[C@]1(NC(=O)N2Cc3ccccc3C2)C[C@H]2CN(CCc3c([nH]c4ccccc34)[C@@](C(=O)OC)(c3cc4c(cc3OC)N(C)[C@H]3[C@@](O)(C(=O)OC)[C@H](OC(C)=O)[C@]5(CC)C=CCN6CC[C@]43[C@@H]65)C2)C1 [Compound 9]									9.29	8.12	9.22	pIC50 ([7]; listed as drawing 15): 8.40; pIC50 ([8]; listed as drawing 15): 9.30
CC[C@]1(O)C[C@@H]2CN(CCc3c([nH]c4ccccc34)[C@@](C(=O)OC)(c3cc4c(cc3OC)N(C)[C@H]3[C@@](O)(C(=O)OC)[C@H](OC(C)=O)[C@]5(CC)C=CCN6CC[C@]43[C@@H]65)C2)C1 [Compound 1, Vinblastine, reference compound]							31 ± 9%			6.22		% displacement of BODIPY-vinblastine bound to tubulin ([4]; listed as vinblastine): 31%
CC[C@]1(NC(=O)N2CCCC2)C[C@H]2CN(CCc3c([nH]c4ccccc34)[C@@](C(=O)OC)(c3cc4c(cc3OC)N(C)[C@H]3[C@@](O)(C(=O)OC)[C@H](OC(C)=O)[C@]5(CC)C=CCN6CC[C@]43[C@@H]65)C2)C1 [Compound 8]									9.15	7.30	9.14	pIC50 ([8]; listed as drawing 14): 9.15
CC[C@]1(NC(=O)N2Cc3ccc(NC(=O)c4cccnn4)cc3C2)C[C@H]2CN(CCc3c([nH]c4ccccc34)[C@@](C(=O)OC)(c3cc4c(cc3OC)N(C)[C@H]3[C@@](O)(C(=O)OC)[C@H](OC(C)=O)[C@]5(CC)C=CCN6CC[C@]43[C@@H]65)C2)C1 [Compound 61]	10	100 fold	10.17	0.07	9.06	700	100% and 101 ± 4%	10.23				
CC[C@]1(O)C[C@H]2CN(CCc3c([nH]c4ccc(F)cc34)[C@@](C(=O)OC)(c3cc4c(cc3OC)N(C)[C@H]3[C@@](O)(C(=O)OC)[C@H](OC(C)=O)[C@]5(CC)C=CCN6CC[C@]43[C@@H]65)C2)C1 [Compound 71, 10′-fluorovinblastine, reference compound]		roughly 10 fold		0.8			48 ± 7%					
CC[C@]1(NC(=O)N2CCCCC2)C[C@H]2CN(CCc3c([nH]c4ccccc34)[C@@](C(=O)OC)(c3cc4c(cc3OC)N(C)[C@H]3[C@@](O)(C(=O)OC)[C@H](OC(C)=O)[C@]5(CC)C=CCN6CC[C@]43[C@@H]65)C2)C1 [Compound 23]									8.26	7.30	8.41	
CC[C@]1(NC(=O)N2Cc3ccc(OC)cc3C2)C[C@H]2CN(CCc3c([nH]c4ccccc34)[C@@](C(=O)OC)(c3cc4c(cc3OC)N(C)[C@H]3[C@@](O)(C(=O)OC)[C@H](OC(C)=O)[C@]5(CC)C=CCN6CC[C@]43[C@@H]65)C2)C1 [Compound 35]									9.32	8.07	9.27	
